Measured values taken from PubChem BioAssay AID652281 (Sanford-Burnham Center for Chemical Genomics, 2013).
Activity calls are given as the source filed them.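 The calls were made as follows: active = compounds toxic to worms, with a half-maximal toxicity dose of 25 µM or lower; inactive = the rest.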

Test system: C. elegans VP596 worm health composite score, 20-22 h
Assay: whole-worm cytotoxicity of SKN-1 inhibitor analogs – whole organism, strain VP596, composite health score, round 2, cytotoxicity control for SKN-1 inhibitor project, SAR follow-up (AID 652281)

Clc1ccc(COc2c(Cl)cc(CNC3CCCC3)cc2Cl)cc1
IC50: > 64 µM (inactive)

CCOc1cc(CNC2CCCC2)cc(Cl)c1OCc1ccc(Br)cc1
IC50: > 64 µM (inactive)

CCOc1cc(CN(C)C2CCCC2)cc(Cl)c1OCc1ccc(Cl)cc1
IC50: > 64 µM (inactive)

COc1cc(CNC2CCCC2)cc(F)c1OCc1ccc(Cl)cc1
IC50: > 64 µM (inactive)

CCOc1cc(CN2CCOCC2)cc(Cl)c1OCc1ccc(Cl)cc1
IC50: > 64 µM (inactive)

COc1cc(CNC2CCCC2)cc(Br)c1OCc1ccc(Cl)cc1
IC50: > 64 µM (inactive)

C#CCNCc1cc(Cl)c(OCc2ccc(Cl)cc2)c(OCC)c1
IC50: > 64 µM (inactive)

CCOc1cc(CNC2CCCC2)cc(Cl)c1OCc1ccc(Cl)cc1F
IC50: > 64 µM (inactive)

CCOc1cc(CNC2CC2)cc(Cl)c1OCc1ccc(C#N)cc1
IC50: > 64 µM (inactive)

CCCNCc1cc(Cl)c(OCc2ccc(Cl)cc2)c(OCC)c1
IC50: > 64 µM (inactive)

Cc1cc(CNC2CCCC2)cc(C)c1OCc1ccc(Cl)cc1
IC50: > 64 µM (inactive)

CCOc1cc(CNC2CC2)cc(Cl)c1OCc1ccc(Cl)cc1F
IC50: > 64 µM (inactive)

CCOc1cc(CNC2CCCC2)cc(Cl)c1OCc1ccc(C#N)cc1
IC50: > 64 µM (inactive)

CCOc1cc(CNCC2CC2)cc(Cl)c1OCc1ccc(Cl)cc1
IC50: > 64 µM (inactive)

CCOc1cc(CNC2CC2)cc(Cl)c1OCc1ccc(Br)cc1
IC50: > 64 µM (inactive)

CCOc1cc(CN2CCCCC2)cc(Cl)c1OCc1ccc(Cl)cc1
IC50: > 64 µM (inactive)

CCOc1cc(CN(C(C)=O)C2CCCC2)cc(Cl)c1OCc1ccc(Cl)cc1
IC50: > 64 µM (inactive)

C=CCNCc1cc(Cl)c(OCc2ccc(Cl)cc2)c(OCC)c1
IC50: > 64 µM (inactive)

CCOc1cc(CN2CCCCC2)cc(Cl)c1OCc1ccc(F)cc1
IC50: > 64 µM (inactive)

CCOc1cc(CN2CCOCC2)cc(Cl)c1OCc1ccc(F)cc1
IC50: > 64 µM (inactive)

CCOc1cc(CN2CCN(C)CC2)cc(Cl)c1OCc1ccc(Cl)cc1
IC50: > 64 µM (inactive)

CCOc1cc(CN2CCCC2)cc(Cl)c1OCc1ccc(F)cc1
IC50: > 64 µM (inactive)

CCOc1cc(CN2CCCC2)cc(Cl)c1OCc1ccc(Cl)cc1
IC50: > 64 µM (inactive)

CCOc1cc(CNC2CC2)cc(Cl)c1OCc1ccc(Cl)cc1
IC50: > 64 µM (inactive)

CCOc1cc(CN2CCN(C)CC2)cc(Cl)c1OCc1ccc(F)cc1
IC50: > 64 µM (inactive)

CCOc1cc(CNC)cc(Cl)c1OCc1ccc(Cl)cc1
IC50: > 64 µM (inactive)

COc1cc(CNC2CCCC2)cc(Cl)c1OCc1ccc(Cl)cc1
IC50: > 64 µM (inactive)
